Assay results as given in patent US9981942B2, “Piperidine derivatives having multimodal activity against pain” (LABORATORIOS DEL DR. ESTEVE S.A., priority 2013, dated 2018).

Each molecule was assayed on σ1 receptor and the μ-opiod receptor (assay: μ and σ1 dual binding: combined class from the Ki of both radioligand assays). Conditions: combined class for Ki-μ and Ki-σ1; transfected HEK-293 membranes (σ1), transfected CHO-K1 cell membranes (μ).
Parameters: species or system human; key to μ and σ1 dual binding: +: Both Ki-μ and Ki-σ1>=500 nM; ++: One Ki<500 nM while the other Ki is >=500 nM; +++: Both Ki-μ and Ki-σ1<500 nM; ++++: Both Ki-μ and Ki-σ1<100 nM
Method: To investigate binding properties of σ1 receptor ligands to human σ1 receptor, transfected HEK-293 membranes and [^3H](+)-pentazocine (Perkin Elmer, NET-1056), as the radioligand, were used. The assay was carried out with 7 μg of membrane suspension, 5 nM of [^3H](+)-pentazocine in either absence or presence of either buffer or 10 μM Haloperidol for total and non-specific binding, respectively. Binding buffer contained Tris-HCl 50 mM at pH 8. Plates were incubated at 37° C. for 120 minutes. After the incubation period, the reaction mix was then transferred to MultiScreen HTS, FC plates (Millipore), filtered and plates were washed 3 times with ice-cold 10 mM Tris-HCL (pH7.4). Filters were dried and counted at approximately 40% efficiency in a MicroBeta scintillation counter (Perkin-Elmer) using EcoScint liquid scintillation cocktail
To investigate binding properties of mu-opioid receptor ligands to human μ-opioid receptor, transfected CHO-K1 cell membranes and [^3H]-DAMGO (Perkin Elmer, ES-542-C), as the radioligand, were used. The assay was carried out with 20 μg of membrane suspension, 1 nM of [^3H]-DAMGO in either absence or presence of either buffer or 10 μM Naloxone for total and non-specific binding, respectively. Binding buffer contained Tris-HCl 50 mM, MgCl2 5 mM at pH 7.4. Plates were incubated at 27° C. for 60 minutes. After the incubation period, the reaction mix was then transferred to MultiScreen HTS, FC plates (Millipore), filtered and plates were washed 3 times with ice-cold 10 mM Tris-HCL (pH 7.4). Filters were dried and counted at approximately 40% efficiency in a MicroBeta scintillation counter (Perkin-Elmer) using EcoScint liquid scintillation cocktail.
The following scale as been adopted for representing the binding to the σ1 receptor and the μ-opiod receptor expressed as Ki: • + Both Ki-μ and Ki-σ1>=500 nM • ++ One Ki<500 nM while the other Ki is >=500 nM • +++ Both Ki-μ and Ki-σ1<500 nM • ++++ Both Ki-μ and Ki-σ1<100 nM
`CS(=O)(=O)Nc1cccc(C2CCN(Cc3ncn(-c4ccccc4)n3)CC2)c1` [Example 182, N-(3-(1-((1-phenyl-1H-1,2,4-triazol-3-yl)methyl)piperidin-4-yl)phenyl)methanesulfonamide] was tested, and the “μ and σ1 dual binding” value was “++”. In the case of `CC(C)S(=O)(=O)Nc1cccc(C2CCN(Cc3cn(Cc4ncccc4C(F)(F)F)nn3)CC2)c1` [Example 121, N-(3-(1-((1-((3-(trifluoromethyl)pyridin-2-yl)methyl)-1H-1,2,3-triazol-4-yl)methyl)piperidin-4-yl)phenyl)propane-2-sulfonamide], the “μ and σ1 dual binding” value is reported as “++”. For `CCC(=O)Nc1cccc(C2CCN(Cc3cn([C@@H]4c5ccccc5C[C@H]4O)nn3)CC2)c1` [Example 69, N-(3-(1-((1-((1R,2R)-2-hydroxy-2,3-dihydro-1H-inden-1-yl)-1H-1,2,3-triazol-4-yl)methyl)piperidin-4-yl)phenyl)propionamide], the “μ and σ1 dual binding” value was “++”. For `CS(=O)(=O)Nc1cccc(C2CCN(Cc3nnn4c3-c3ccccc3C4)CC2)c1` [Example 119, N-(3-(1-((8H-[1,2,3]triazolo[5,1-a]isoindol-3-yl)methyl)piperidin-4-yl)phenyl)methanesulfonamide], the “μ and σ1 dual binding” value was “++”. `CS(=O)(=O)Nc1cccc(C2CCN(Cc3cnn([C@@H]4c5ccccc5C[C@H]4O)c3)CC2)c1` [Example 166, N-(3-(1-((1-((1R,2R)-2-hydroxy-2,3-dihydro-1H-inden-1-yl)-1H-pyrazol-4-yl)methyl)piperidin-4-yl)phenyl)methanesulfonamide] was tested, and the “μ and σ1 dual binding” value was “++”. For `CS(=O)(=O)Nc1cccc(C2CCN(Cc3cn(C4CCC(F)(F)CC4)nn3)CC2)c1` [Example 68, N-(3-(1-((1-(4,4-difluorocyclohexyl)-1H-1,2,3-triazol-4-yl)methyl)piperidin-4-yl)phenyl)methanesulfonamide], the “μ and σ1 dual binding” value was “++”. For `c1ccc(Cn2cc(CN3CCC(c4cccc(Nc5nccs5)n4)CC3)nn2)nc1` [Example 230, N-(6-(1-((1-(pyridin-2-ylmethyl)-1H-1,2,3-triazol-4-yl)methyl)piperidin-4-yl)pyridin-2-yl)thiazol-2-amine], the “μ and σ1 dual binding” value was “++”. In the case of `CS(=O)(=O)Nc1cccc(C2CCN(Cc3cn([C@H]4c5ccccc5C[C@@H]4O)nn3)CC2)c1` [Example 91, N-(3-(1-((1-((1S,2S)-2-hydroxy-2,3-dihydro-1H-inden-1-yl)-1H-1,2,3-triazol-4-yl)methyl)piperidin-4-yl)phenyl)methanesulfonamide], the “μ and σ1 dual binding” value is reported as “++”. For `CC1(n2cc(CN3CCC(c4cccc(O)c4)CC3)nn2)C(=O)Nc2ccccc21` (stereo not shown) [Example 95, 3-(4-((4-(3-hydroxyphenyl)piperidin-1-yl)methyl)-1H-1,2,3-triazol-1-yl)-3-methylindolin-2-one], the “μ and σ1 dual binding” value was “++”.

Same assay, conditions: transfected HEK-293 membranes (σ1), transfected CHO-K1 cell membranes (μ)
`c1ccc(-n2cc(CN3CCC(c4cccc(-c5nnn[nH]5)c4)CC3)nn2)cc1` [Example 85, 4-(3-(1H-tetrazol-5-yl)phenyl)-1-((1-phenyl-1H-1,2,3-triazol-4-yl)methyl)piperidine] was tested, and the Ki range for both μ and σ1 (dual-binding class) was at least 500 nM. With `Oc1cccc(C2CCN(Cc3cn([C@H]4c5ccccc5C[C@@H]4O)nn3)CC2)c1` [Example 65, (1S,2S)-1-(4-((4-(3-hydroxyphenyl)piperidin-1-yl)methyl)-1H-1,2,3-triazol-1-yl)-2,3-dihydro-1H-inden-2-ol] the Ki range for both μ and σ1 (dual-binding class) was under 500 nM. Work on `CCCn1cc(CN2CCC(c3cccc(O)c3)CC2)nn1` [Example 3, 3-(1-((1-propyl-1H-1,2,3-triazol-4-yl)methyl)piperidin-4-yl)phenol] yielded a Ki range for both μ and σ1 (dual-binding class) of under 500 nM. `Oc1ccc(C2CCN(Cc3cn(-c4ccccc4)nn3)CC2)cc1` [Example 221, 4-(1-((1-phenyl-1H-1,2,3-triazol-4-yl)methyl)piperidin-4-yl)phenol] gave a Ki range for both μ and σ1 (dual-binding class) of under 500 nM. For `CCC(=O)Nc1cc(C2CCN(Cc3cn(-c4ccccc4)nn3)CC2)ccn1` [Example 196, N-(4-(1-((1-phenyl-1H-1,2,3-triazol-4-yl)methyl)piperidin-4-yl)pyridin-2-yl)propionamide], the Ki range for both μ and σ1 (dual-binding class) was at least 500 nM. `CS(=O)(=O)Nc1cccc(C2CCN(Cc3cc(-c4ccccc4)no3)CC2)n1` [Example 200, N-(6-(1-((3-phenylisoxazol-5-yl)methyl)piperidin-4-yl)pyridin-2-yl)methanesulfonamide] was tested, and the Ki range for both μ and σ1 (dual-binding class) was under 500 nM. Work on `CC(C)S(=O)(=O)Nc1cccc(C2CCN(Cc3cn(Cc4ccccn4)nn3)CC2)n1` [Example 206, N-(6-(1-((1-(pyridin-2-ylmethyl)-1H-1,2,3-triazol-4-yl)methyl)piperidin-4-yl)pyridin-2-yl)propane-2-sulfonamide] yielded a Ki range for both μ and σ1 (dual-binding class) of under 500 nM. Molecule `CS(=O)(=O)Nc1ccc(F)c(C2CCN(Cc3cn(Cc4ccccc4)nn3)CC2)c1` [Example 87, N-(3-(1-((1-benzyl-1H-1,2,3-triazol-4-yl)methyl)piperidin-4-yl)-4-fluorophenyl)methanesulfonamide] has a Ki range for both μ and σ1 (dual-binding class) of under 500 nM. `OC[C@@H](c1ccccc1)n1cc(CN2CCC(c3cccc(O)c3)CC2)nn1` (stereo in doubt) [Example 149, (R)-3-(1-((1-(2-hydroxy-1-phenylethyl)-1H-1,2,3-triazol-4-yl)methyl)piperidin-4-yl)phenol] gave a Ki range for both μ and σ1 (dual-binding class) of under 500 nM. `Oc1cccc(C2CCN(Cc3cn(-c4ncccc4C(F)(F)F)nn3)CC2)c1` [Example 218, 3-(1-((1-(3-(trifluoromethyl)pyridin-2-yl)-1H-1,2,3-triazol-4-yl)methyl)piperidin-4-yl)phenol] was tested, and the Ki range for both μ and σ1 (dual-binding class) was under 500 nM. Work on `Oc1cccc(C2CCN(CCc3cn(-c4ccccc4)nn3)CC2)c1` [Example 162, 3-(1-(2-(1-phenyl-1H-1,2,3-triazol-4-yl)ethyl)piperidin-4-yl)phenol] yielded a Ki range for both μ and σ1 (dual-binding class) of under 100 nM. For `CS(=O)(=O)Nc1ccc(F)c(C2CCN(Cc3cn(-c4ccccc4)nn3)CC2)c1` [Example 18, N-(4-fluoro-3-(1-((1-phenyl-1H-1,2,3-triazol-4-yl)methyl)piperidin-4-yl)phenyl)methanesulfonamide], the Ki range for both μ and σ1 (dual-binding class) was under 100 nM. `c1ccc(-n2cc(CN3CCC(c4cccc5[nH]ncc45)CC3)nn2)cc1` [Example 29, 4-(1-((1-phenyl-1H-1,2,3-triazol-4-yl)methyl)piperidin-4-yl)-1H-indazole] was tested, and the Ki range for both μ and σ1 (dual-binding class) was under 500 nM. Work on `Oc1cccc(C2CCN(Cc3cn(-c4ccccc4O)nn3)CC2)c1` [Example 58, 2-(4-((4-(3-hydroxyphenyl)piperidin-1-yl)methyl)-1H-1,2,3-triazol-1-yl)phenol] yielded a Ki range for both μ and σ1 (dual-binding class) of under 500 nM. `Oc1cccc(C2CCN(Cc3cn(Cc4cccnc4)nn3)CC2)c1` [Example 145, 3-(1-((1-(pyridin-3-ylmethyl)-1H-1,2,3-triazol-4-yl)methyl)piperidin-4-yl)phenol] gave a Ki range for both μ and σ1 (dual-binding class) of under 500 nM. `CS(=O)(=O)Nc1ccc(F)c(C2CCN(Cc3cc(-c4ccccc4)no3)CC2)c1` [Example 179, N-(4-fluoro-3-(1-((3-phenylisoxazol-5-yl)methyl)piperidin-4-yl)phenyl)methanesulfonamide] gave a Ki range for both μ and σ1 (dual-binding class) of under 500 nM. Molecule `Oc1cccc(C2CCN(Cc3cn(-c4ccccc4)nn3)CC2)n1` [Example 198, 6-(1-((1-phenyl-1H-1,2,3-triazol-4-yl)methyl)piperidin-4-yl)pyridin-2-ol] has a Ki range for both μ and σ1 (dual-binding class) of at least 500 nM. With `Oc1cccc(C2CCN(Cc3cn(-c4ccc(Cl)c(Cl)c4)nn3)CC2)c1` [Example 40, 3-(1-((1-(3,4-dichlorophenyl)-1H-1,2,3-triazol-4-yl)methyl)piperidin-4-yl)phenol] the Ki range for both μ and σ1 (dual-binding class) was under 100 nM. With `Oc1cccc(C2CCN(Cc3cn(-c4c(F)cccc4F)nn3)CC2)c1` [Example 146, 3-(1-((1-(2,6-difluorophenyl)-1H-1,2,3-triazol-4-yl)methyl)piperidin-4-yl)phenol] the Ki range for both μ and σ1 (dual-binding class) was under 100 nM. `CS(=O)(=O)Nc1cccc(C2CCN(Cc3cn(-c4ccccc4)nn3)CC2)c1F` [Example 53, N-(2-fluoro-3-(1-((1-phenyl-1H-1,2,3-triazol-4-yl)methy)piperidin-4-yl)phenyl)methanesulfonamide] gave a Ki range for both μ and σ1 (dual-binding class) of under 100 nM. `Oc1cccc(C2CCN(Cc3cn(-c4ccccc4)nn3)CC2)c1` [Example 2, 3-(1-((1-phenyl-1H-1,2,3-triazol-4-yl)methyl)piperidin-4-yl)phenol] gave a Ki range for both μ and σ1 (dual-binding class) of under 100 nM. `Oc1cccc(C2CCN(Cc3cn([C@H]4CC[C@H](C(F)(F)F)CC4)nn3)CC2)c1` [Example 83, 3-(1-((1-((1r,4r)-4-(trifluoromethyl)cyclohexyl)-1H-1,2,3-triazol-4-yl)methyl)piperidin-4-yl)phenol] showed a Ki range for both μ and σ1 (dual-binding class) of under 100 nM.
